Experimental data taken from the supplement of paper PMC10307832.

How the values were obtained:
Experiment in all cases: relative viability (nuclei count vs DMSO), 5 days (fraction); higher = more cells survive
NCI-H358 = tested on: NCI-H358
Method in brief: (§1)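 Cells from lung cancer lines were seeded into 1536-well plates and, one day later, dosed by pin tool. Treatments were either a single drug or a fixed dose of an anchor drug with five library-drug doses (not always all listed) in √10 steps. After 5 days, nuclei were stained in a one-step fixation (final 0.05% Triton X-100, 1% formaldehyde, 1 ug/ml Hoechst) and counted on 4× images, and relative viability is the treated-to-vehicle nuclei ratio, as the median of duplicate plates.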

EKVX = tested on: EKVX
Method in brief: as §1

NCI-H838 = tested on: NCI-H838
Method in brief: as §1

LOU-NH91 = tested on: LOU-NH91
Method in brief: as §1

NCI-H2023 = tested on: NCI-H2023
Method in brief: as §1

CAL-12T = tested on: CAL-12T
Method in brief: as §1

NCI-H1651 = tested on: NCI-H1651
Method in brief: as §1

NCI-H1437 = tested on: NCI-H1437
Method in brief: as §1

NCI-H460 = tested on: NCI-H460
Method in brief: as §1

NCI-H1563 = tested on: NCI-H1563
Method in brief: as §1

NCI-H1395 = tested on: NCI-H1395
Method in brief: as §1

HCC-366 = tested on: HCC-366
Method in brief: as §1

NCI-H441 = tested on: NCI-H441
Method in brief: as §1

BEN = tested on: BEN
Method in brief: as §1

HCC-15 = tested on: HCC-15
Method in brief: as §1

NCI-H1734 = tested on: NCI-H1734
Method in brief: as §1

NCI-H1975 = tested on: NCI-H1975
Method in brief: as §1

LCLC-103H = tested on: LCLC-103H
Method in brief: as §1

NCI-H1355 = tested on: NCI-H1355
Method in brief: as §1

NCI-H1755 = tested on: NCI-H1755
Method in brief: as §1

NCI-H2085 = tested on: NCI-H2085
Method in brief: as §1

HCC-44 = tested on: HCC-44
Method in brief: as §1

`COc1cc(N2CCC(C(N)=O)CC2)ccc1Nc1nc(N)c(Cl)c(Nc2ccccc2S(=O)(=O)C(C)C)n1` [HG-5-88-01] + Cc1nc(NC(=O)N2CCC[C@H]2C(N)=O)sc1-c1ccnc(C(C)(C)C(F)(F)F)c1 [Alpelisib] (partner 2 µM) was tested, and the relative viability (NCI-H358; first compound 0.04 µM) was 0.845, the relative viability (NCI-H358; first compound 0.1265 µM) was 0.692 and the relative viability (NCI-H358; first compound 0.4 µM) was 0.497. The relative viability (NCI-H358; first compound 1.265 µM) was 0.432, the relative viability (NCI-H358; first compound 4 µM) was 0.323 and the relative viability (EKVX; first compound 0.04 µM) was 0.888. For the same compound, the relative viability (EKVX; first compound 0.1265 µM) was 0.914, the relative viability (EKVX; first compound 0.4 µM) was 0.823 and the relative viability (EKVX; first compound 4 µM) was 0.814. The relative viability (NCI-H838; first compound 0.04 µM) was 1, the relative viability (NCI-H838; first compound 0.1265 µM) was 1.1 and the relative viability (NCI-H838; first compound 0.4 µM) was 0.917. The relative viability (NCI-H838; first compound 1.265 µM) was 0.9, the relative viability (NCI-H838; first compound 4 µM) was 0.896 and the relative viability (LOU-NH91; first compound 0.04 µM) was 0.713. It also gave a relative viability (LOU-NH91; first compound 0.1265 µM) of 0.67, a relative viability (LOU-NH91; first compound 0.4 µM) of 0.659 and a relative viability (LOU-NH91; first compound 1.265 µM) of 0.545. The relative viability (LOU-NH91; first compound 4 µM) was 0.528, the relative viability (NCI-H2023; first compound 0.04 µM) was 0.659 and the relative viability (NCI-H2023; first compound 0.1265 µM) was 0.54. For the same compound, the relative viability (NCI-H2023; first compound 0.4 µM) was 0.539, the relative viability (NCI-H2023; first compound 1.265 µM) was 0.358 and the relative viability (NCI-H2023; first compound 4 µM) was 0.474. It also gave a relative viability (CAL-12T; first compound 0.04 µM) of 1.11, a relative viability (CAL-12T; first compound 0.1265 µM) of 1.3 and a relative viability (CAL-12T; first compound 0.4 µM) of 1.19. The relative viability (CAL-12T; first compound 1.265 µM) was 1.12, the relative viability (CAL-12T; first compound 4 µM) was 0.874 and the relative viability (NCI-H1651; first compound 0.04 µM) was 0.927. For the same compound, the relative viability (NCI-H1651; first compound 0.1265 µM) was 1, the relative viability (NCI-H1651; first compound 0.4 µM) was 0.962 and the relative viability (NCI-H1651; first compound 1.265 µM) was 0.906. It also gave a relative viability (NCI-H1651; first compound 4 µM) of 1.2, a relative viability (NCI-H1437; first compound 0.04 µM) of 1.03 and a relative viability (NCI-H1437; first compound 0.1265 µM) of 1.09. The relative viability (NCI-H1437; first compound 0.4 µM) was 0.873, the relative viability (NCI-H1437; first compound 1.265 µM) was 0.964 and the relative viability (NCI-H1437; first compound 4 µM) was 1.02. The relative viability (NCI-H460; first compound 0.04 µM) was 0.466, the relative viability (NCI-H460; first compound 0.1265 µM) was 0.461 and the relative viability (NCI-H460; first compound 0.4 µM) was 0.461. The relative viability (NCI-H460; first compound 1.265 µM) was 0.335, the relative viability (NCI-H460; first compound 4 µM) was 0.304 and the relative viability (NCI-H1563; first compound 0.04 µM) was 1.05. It also gave a relative viability (NCI-H1563; first compound 0.1265 µM) of 0.877, a relative viability (NCI-H1563; first compound 0.4 µM) of 0.909 and a relative viability (NCI-H1563; first compound 1.265 µM) of 0.844. It also gave a relative viability (NCI-H1563; first compound 4 µM) of 0.993, a relative viability (NCI-H1395; first compound 0.04 µM) of 1.09 and a relative viability (NCI-H1395; first compound 0.1265 µM) of 1.06. It also gave a relative viability (NCI-H1395; first compound 0.4 µM) of 1.1, a relative viability (NCI-H1395; first compound 1.265 µM) of 0.909 and a relative viability (NCI-H1395; first compound 4 µM) of 0.986. For the same compound, the relative viability (HCC-366; first compound 0.04 µM) was 0.49, the relative viability (HCC-366; first compound 0.1265 µM) was 0.382 and the relative viability (HCC-366; first compound 0.4 µM) was 0.309. For the same compound, the relative viability (HCC-366; first compound 1.265 µM) was 0.418, the relative viability (HCC-366; first compound 4 µM) was 0.327 and the relative viability (NCI-H441; first compound 0.04 µM) was 0.752. The relative viability (NCI-H441; first compound 0.1265 µM) was 0.77, the relative viability (NCI-H441; first compound 0.4 µM) was 0.845 and the relative viability (NCI-H441; first compound 1.265 µM) was 0.84. It also gave a relative viability (NCI-H441; first compound 4 µM) of 0.893, a relative viability (BEN; first compound 0.04 µM) of 0.948 and a relative viability (BEN; first compound 0.1265 µM) of 1.03. For the same compound, the relative viability (BEN; first compound 0.4 µM) was 1.04, the relative viability (BEN; first compound 1.265 µM) was 0.853 and the relative viability (BEN; first compound 4 µM) was 1.15. The relative viability (HCC-15; first compound 0.04 µM) was 0.925, the relative viability (HCC-15; first compound 0.1265 µM) was 0.865 and the relative viability (HCC-15; first compound 0.4 µM) was 0.936. It also gave a relative viability (HCC-15; first compound 1.265 µM) of 0.832, a relative viability (HCC-15; first compound 4 µM) of 0.775 and a relative viability (NCI-H1734; first compound 0.04 µM) of 0.633. For the same compound, the relative viability (NCI-H1734; first compound 0.1265 µM) was 0.657, the relative viability (NCI-H1734; first compound 0.4 µM) was 0.727 and the relative viability (NCI-H1734; first compound 1.265 µM) was 0.713. For the same compound, the relative viability (NCI-H1734; first compound 4 µM) was 0.799, the relative viability (NCI-H1975; first compound 0.04 µM) was 0.597 and the relative viability (NCI-H1975; first compound 0.1265 µM) was 0.62. The relative viability (NCI-H1975; first compound 0.4 µM) was 0.555, the relative viability (NCI-H1975; first compound 1.265 µM) was 0.516 and the relative viability (NCI-H1975; first compound 4 µM) was 0.264. For the same compound, the relative viability (LCLC-103H; first compound 0.04 µM) was 0.938, the relative viability (LCLC-103H; first compound 0.1265 µM) was 0.968 and the relative viability (LCLC-103H; first compound 0.4 µM) was 0.949. The relative viability (LCLC-103H; first compound 1.265 µM) was 0.907, the relative viability (LCLC-103H; first compound 4 µM) was 1.2 and the relative viability (NCI-H1355; first compound 0.04 µM) was 0.881. For the same compound, the relative viability (NCI-H1355; first compound 0.1265 µM) was 0.934, the relative viability (NCI-H1355; first compound 0.4 µM) was 0.775 and the relative viability (NCI-H1355; first compound 1.265 µM) was 0.767. For the same compound, the relative viability (NCI-H1355; first compound 4 µM) was 0.737, the relative viability (NCI-H1755; first compound 0.1265 µM) was 0.938 and the relative viability (NCI-H1755; first compound 0.4 µM) was 0.912. For the same compound, the relative viability (NCI-H1755; first compound 1.265 µM) was 0.897, the relative viability (NCI-H1755; first compound 4 µM) was 1.05 and the relative viability (NCI-H2085; first compound 0.04 µM) was 1.05. It also gave a relative viability (NCI-H2085; first compound 0.1265 µM) of 1, a relative viability (NCI-H2085; first compound 0.4 µM) of 0.908 and a relative viability (NCI-H2085; first compound 1.265 µM) of 0.973. The relative viability (NCI-H2085; first compound 4 µM) was 0.902, the relative viability (HCC-44; first compound 0.04 µM) was 0.858 and the relative viability (HCC-44; first compound 0.1265 µM) was 0.824. For the same compound, the relative viability (HCC-44; first compound 0.4 µM) was 0.701, the relative viability (HCC-44; first compound 1.265 µM) was 0.68 and the relative viability (HCC-44; first compound 4 µM) was 0.471.
